Target: T1, recombinant human SAE enzyme (Homo sapiens, UniProt Q9UBT2)
T1 sequence (Q9UBT2 1-640): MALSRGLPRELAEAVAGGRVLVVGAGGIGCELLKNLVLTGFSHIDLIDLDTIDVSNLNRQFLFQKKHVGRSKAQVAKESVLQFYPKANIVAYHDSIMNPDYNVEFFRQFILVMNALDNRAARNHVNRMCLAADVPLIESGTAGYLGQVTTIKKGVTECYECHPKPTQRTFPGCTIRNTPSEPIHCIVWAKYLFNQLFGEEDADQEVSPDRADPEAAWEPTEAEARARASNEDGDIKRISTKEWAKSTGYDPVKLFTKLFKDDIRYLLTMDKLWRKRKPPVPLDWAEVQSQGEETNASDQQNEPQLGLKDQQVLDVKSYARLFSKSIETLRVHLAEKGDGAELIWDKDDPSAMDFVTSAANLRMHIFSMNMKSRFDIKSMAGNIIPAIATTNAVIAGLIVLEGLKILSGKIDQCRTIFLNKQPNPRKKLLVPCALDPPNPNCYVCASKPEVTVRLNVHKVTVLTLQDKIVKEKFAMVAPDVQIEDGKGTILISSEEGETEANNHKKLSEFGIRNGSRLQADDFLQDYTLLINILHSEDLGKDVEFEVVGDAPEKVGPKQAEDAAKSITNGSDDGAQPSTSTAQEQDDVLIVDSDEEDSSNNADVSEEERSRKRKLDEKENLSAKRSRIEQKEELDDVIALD
T1 sequence (Q9UBE0 1-346 partner): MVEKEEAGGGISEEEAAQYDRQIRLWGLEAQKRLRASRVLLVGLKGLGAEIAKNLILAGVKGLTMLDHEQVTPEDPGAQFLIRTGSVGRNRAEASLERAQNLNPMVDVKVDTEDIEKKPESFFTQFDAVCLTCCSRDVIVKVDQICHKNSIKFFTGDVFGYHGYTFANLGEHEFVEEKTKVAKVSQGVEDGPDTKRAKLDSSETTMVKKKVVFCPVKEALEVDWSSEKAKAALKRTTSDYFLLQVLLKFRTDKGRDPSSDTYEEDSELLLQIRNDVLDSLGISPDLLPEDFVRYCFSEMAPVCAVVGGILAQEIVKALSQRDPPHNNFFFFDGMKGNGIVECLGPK
Assay: SAE HTRF Enzyme Assay
Assay type: biochemical
Conditions: for IC50: class symbols A-C; for inhibition at 0.111 µM: compound concentration 0.111 μM, read-out: Percent Inhibition
Method in brief: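 Measured as FRET after a 2 h antibody step: SAE (0.11 nM) thioester transfer of Sumo-Flag to Ubc9-GST, 0.5 μM ATP, 24° C for 105 min, quenched with 20 mM EDTA. Output is IC50 or percent inhibition at a single concentration.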

Compound	IC50	inhibition at 0.111 µM
CC(C)(C)C#CCn1ccc(C(=O)c2cncnc2N[C@@H]2C[C@H](COS(N)(=O)=O)[C@@H](O)[C@@H]2F)c1 [Compound I-26, {(1R,2R,3R,4R)-4-[(5-{[1-(4,4-dimethylpent-2-yn-1-yl)-1H-pyrrol-3-yl]carbonyl}pyrimidin-4-yl)amino]-3-fluoro-2-hydroxycyclopentyl}methyl sulfamate]	0.01 to 0.1 µM	90%
NS(=O)(=O)OC[C@H]1C[C@@H](Nc2ncncc2C(=O)c2ccn(CC#CC3(O)CCOCC3)n2)C[C@@H]1O [Compound I-27, [(1R,2S,4R)-2-hydroxy-4-{[5-({1-[3-(4-hydroxytetrahydro-2H-pyran-4-yl)prop-2-yn-1-yl]-1H-pyrazol-3-yl}carbonyl)pyrimidin-4-yl]amino}cyclopentyl]methyl sulfamate]	0.1 to 1 µM	9%
CCOCCn1ccc(C(=O)c2cncnc2N[C@@H]2C[C@H](COS(N)(=O)=O)[C@@H](O)[C@H]2O)n1 [Compound I-28, {(1R,2R,3S,4R)-4-[(5-{[1-(2-ethoxyethyl)-1H-pyrazol-3-yl]carbonyl}pyrimidin-4-yl)amino]-2,3-dihydroxycyclopentyl}methyl sulfamate]	0.01 to 0.1 µM	78%
NS(=O)(=O)OC[C@H]1C[C@@H](Nc2ncncc2C(=O)c2ccn(Cc3cncc(Br)c3)n2)C[C@@H]1O [Compound I-29, [(1R,2S,4R)-4-{[5-({1-[(5-bromopridin-3-yl)methyl]-1H-pyrazol-3-yl}carbonyl)pyrimidin-4-yl]amino}-2-hydroxycyclopentyl]methyl sulfamate]	0.01 to 0.1 µM	94%
NS(=O)(=O)OC[C@H]1C[C@@H](Nc2ncncc2C(=O)c2ccn(CC3CC3)n2)[C@H](O)[C@@H]1O [Compound I-30, {(1R,2R,3S,4R)-4-[(5-{[1-(cyclopropylmethyl)-1H-pyrazol-3-yl]carbonyl}pyrimidin-4-yl)amino]-2,3-dihydroxycyclopentyl}methyl sulfamate]	0.01 to 0.1 µM	66%
Cc1cc(C(=O)c2cncnc2N[C@@H]2C[C@H](COS(N)(=O)=O)[C@@H](O)[C@H]2O)nn1Cc1ccccc1 [Compound I-31, [(1R,2R,3S,4R)-4-({5-[(1-benzyl-5-methyl-1H-pyrazol-3-yl)carbonyl]pyrimidin-4-yl}amino)-2,3-dihydroxycyclopentyl]methyl sulfamate]	< 0.01 µM	94%
Cc1ccc(F)c(Cn2ccc(C(=O)c3cncnc3N[C@@H]3C[C@H](COS(N)(=O)=O)[C@@H](O)C3)n2)c1 [Compound I-32, {(1R,2S,4R)-4-[(5-{[1-(2-fluoro-5-methylbenzyl)-1H-pyrazol-3-yl]carbonyl}pyrimidin-4-yl)amino]-2-hydroxycyclopentyl}methyl sulfamate]	< 0.01 µM	98%
NS(=O)(=O)OC[C@H]1C[C@@H](Nc2ncncc2C(=O)c2ccn(CCc3c[nH]c4ccccc34)n2)[C@H](O)[C@@H]1O [Compound I-33, [(1R,2R,3S,4R)-2,3-dihydroxy-4-{[5-({1-[2-(1H-indol-3-yl)ethyl]-1H-pyrazol-3-yl}carbonyl)pyrimidin-4-yl]amino}cyclopentyl]methyl sulfamate]	< 0.01 µM	98%
NS(=O)(=O)OC[C@H]1C[C@@H](Nc2ncncc2C(=O)c2ccn(Cc3ccc(Cl)c(C(F)(F)F)c3)n2)[C@H](O)[C@@H]1O [Compound I-34, [(1R,2R,3S,4R)-4-{[5-({1-[4-chloro-3-(trifluoromethyl)benzyl]-1H-pyrazol-3-yl}carbonyl)pyrimidin-4-yl]amino}-2,3-dihydroxycyclopentyl] methyl sulfamate]	< 0.01 µM	99%
NS(=O)(=O)OC[C@H]1C[C@@H](Nc2ncncc2C(=O)c2ccn(Cc3cc(F)ccc3F)n2)C[C@@H]1O [Compound I-35, {(1R,2S,4R)-4-[(5-{[1-(2,5-difluorobenzyl)-1H-pyrazol-3-yl]carbonyl}pyrimidin-4-yl)amino]-2-hydroxycyclopentyl}methyl sulfamate]	< 0.01 µM	95%
NS(=O)(=O)OC[C@H]1C[C@@H](Nc2ncncc2C(=O)c2cc(Cl)n(Cc3ccc(C(F)(F)F)o3)c2)[C@@H](F)[C@@H]1O [Compound I-36, [(1R,2R,3R,4R)-4-({5-[(5-chloro-1-{[5-(trifluoromethyl)-2-furyl]methyl}-1H-pyrrol-3-yl)carbonyl]pyrimidin-4-yl}amino)-3-fluoro-2-hydroxycyclopentyl]methyl sulfamate]	< 0.01 µM	99%
CSCCn1ccc(C(=O)c2cncnc2N[C@@H]2C[C@H](COS(N)(=O)=O)[C@@H](O)C2)n1 [Compound I-37, [(1R,2S,4R)-2-hydroxy-4-{[5-({1-[2-(methylsulfanyl)ethyl]-1H-pyrazol-3-yl}carbonyl)pyrimidin-4-yl]amino}cyclopentyl]methyl sulfamate]	0.1 to 1 µM	42%
NS(=O)(=O)CC[C@H]1C[C@@H](Nc2ncncc2C(=O)c2ccn(Cc3cccc(Br)c3)n2)C[C@@H]1O [Compound I-38, 2-{(1R,2S,4R)-4-[(5-{[1-(3-bromobenzyl)-1H-pyrazol-3-yl]carbonyl}pyrimidin-4-yl)amino]-2-hydroxycyclopentyl}ethanesulfonamide]	0.1 to 1 µM	51%
NS(=O)(=O)OC[C@H]1C[C@@H](Nc2ncncc2C(=O)c2ccn(Cc3ccccc3OC(F)(F)F)n2)C[C@@H]1O [Compound I-39, [(1R,2S,4R)-2-hydroxy-4-{[5-({1-[2-(trifluoromethoxy)benzyl]-1H-pyrazol-3-yl}carbonyl)pyrimidin-4-yl]amino}cyclopentyl]methyl sulfamate]	< 0.01 µM	98%
NS(=O)(=O)OC[C@H]1C[C@@H](Nc2ncncc2C(=O)c2ccn(Cc3cccc(Cl)c3)n2)[C@H](O)[C@@H]1O [Compound I-40, {(1R,2R,3S,4R)-4-[(5-{[1-(3-Chlorobenzyl)-1H-pyrazol-3-yl]carbonyl}pyrimidin-4-yl)amino]-2,3-dihydroxycyclopentyl}methyl sulfamate]	< 0.01 µM	97%
COCc1ccc(Cn2ccc(C(=O)c3cncnc3N[C@@H]3C[C@H](COS(N)(=O)=O)[C@@H](O)[C@@H]3F)c2)o1 [Compound I-41, [(1R,2R,3R,4R)-3-fluoro-2-hydroxy-4-({5-[(1-{[5-(methoxymethyl)-2-furyl]methyl}-1H-pyrrol-3-yl)carbonyl]pyrimidin-4-yl}amino)cyclopentyl]methyl sulfamate]	< 0.01 µM	94%
NS(=O)(=O)OC[C@H]1C[C@@H](Nc2ncncc2C(=O)c2ccn(Cc3cccc(I)c3)n2)[C@@H](F)[C@@H]1O [Compound I-42, {(1R,2R,3R,4R)-3-fluoro-2-hydroxy-4-[(5-{[1-(3-iodobenzyl)-1H-pyrazol-3-yl]carbonyl}pyrimidin-4-yl)amino]cyclopentyl}methyl sulfamate]	< 0.01 µM	99%
NS(=O)(=O)OC[C@H]1C[C@@H](Nc2ncncc2C(=O)c2ccn(Cc3ccc(Cl)c(Br)c3)c2)C[C@@H]1O [Compound I-43, {(1R,2S,4R)-4-[(5-{[1-(3-bromo-4-chlorobenzyl)-1H-pyrrol-3-yl]carbonyl}pyrimidin-4-yl)amino]-2-hydroxycyclopentyl}methyl sulfamate]	< 0.01 µM	98%
NS(=O)(=O)OC[C@H]1C[C@@H](Nc2ncncc2C(=O)c2cc(F)n(Cc3cccc(Br)c3)c2)[C@@H](F)[C@@H]1O [Compound I-44, {(1R,2R,3R,4R)-4-[(5-{[1-(3-Bromobenzyl)-5-fluoro-1H-pyrrol-3-yl]carbonyl}pyrimidin-4-yl)amino]-3-fluoro-2-hydroxycyclopentyl}methyl sulfamate]	< 0.01 µM	99%
Cn1nc(C(F)(F)F)cc1Cn1ccc(C(=O)c2cncnc2N[C@@H]2C[C@H](COS(N)(=O)=O)[C@@H](O)C2)c1 [Compound I-45, [(1R,2S,4R)-2-hydroxy-4-({5-[(1-{[1-methyl-3-(trifluoromethyl)-1H-pyrazol-5-yl]methyl}-1H-pyrrol-3-yl)carbonyl]pyrimidin-4-yl}amino)cyclopentyl]methyl sulfamate]	0.01 to 0.1 µM	93%

From US9695154B2, “Heteroaryl inhibitors of sumo activating enzyme” (MILLENNIUM PHARMACEUTICALS, INC., priority 2013, dated 2017)
